Literature values as cited in patent US12378579B2, “Method to produce the anti-microbial diterpenoid leubethanol and related serrulatane-type diterpenes” (priority 2020, dated 2025).

Test system: multi-drug-resistant tuberculosis
Conditions: pure compound from Leucophyllum frutescens; background statement

CC(C)=CCC[C@H](C)[C@@H]1CC[C@@H](C)c2c(O)cc(C)cc21 [leubethanol]
activity against multi-drug resistant tuberculosis: demonstrated activity
